According to US20080249092A1, “Novel Quinoline Compounds Capable Of Binding At The Cb2 Receptor” (priority 2006, published 2008):
Structures can show the parent of a compound that is named as a salt.

molecular target: T1, human cannabinoid CB2 receptor (Homo sapiens, UniProt P34972); test: Cannabinoid CB2 receptor agonist activity in yeast cells (FDGlu fluorescence); type: cell-based; conditions: not given
T1 construct: expressed in transfected cells; host or cells: Saccharomyces cerevisiae strain MMY23 (cassette integrated at the ura3 locus, GPD promoter)
Description: The cannabinoid CB2 receptor agonist activity of compounds of formula (I) was determined in accordance with the following experimental method.
Yeast (Saccharomyces cerevisiae) cells expressing the human cannabinoid CB2 receptor were generated by integration of an expression cassette into the ura3 chromosomal locus of yeast strain MMY23. This cassette consisted of DNA sequence encoding the human CB2 receptor flanked by the yeast GPD promoter to the 5′ end of CB2 and a yeast transcriptional terminator sequence to the 3′ end of CB2. MMY23 expresses a yeast/mammalian chimeric G-protein alpha subunit in which the C-terminal 5 amino acids of Gpa1 are replaced with the C-terminal 5 amino acids of human Gαi1/23 (as described in Brown et al. (2000), Yeast 16:11-22). Cells were grown at 30° C. in liquid Synthetic Complete (SC) yeast media (Guthrie and Fink (1991), Methods in Enzymology, Vol. 194) lacking uracil, tryptophan, adenine and leucine to late logarithmic phase (approximately 6 OD600/ml).
Agonists were prepared as 10 mM solutions in DMSO. EC50 values (the concentration required to produce 50% maximal response) were estimated using 4 fold dilutions of between 3- and 5-fold (BiomekFX, Beckman) into DMSO. Agonist solutions in DMSO (1% final assay volume) were transferred into black microtitre plates from NUNC Greiner (384-well). Cells were suspended at a density of 0.2 OD600/ml in SC media lacking histidine, uracil, tryptophan, adenine and leucine and supplemented with 10 mM 3-aminotriazole, 0.1 M sodium phosphate pH 7.0, and 120 μM fluorescein di-β-D-glucopyranoside (FDGlu). This mixture (50 ul per well) was added to agonist in the assay plates (Multidrop 384, Labsystems). After incubation at 30° C. for 24 hours, fluorescence resulting from degradation of FDGlu to fluorescein due to exoglucanase, an endogenous yeast enzyme produced during agonist-stimulated cell growth, was determined using a fluorescence microtitre plate reader (Tecan Spectrofluor or LJL Analyst excitation wavelength: 485 nm; emission wavelength: 535 nm). Fluorescence was plotted against compound concentration and iteratively curve fitted using a four parameter fit to generate a concentration effect value.
Efficacy (Emax) was calculated from the equation
Emax=Max[compound X]−Min[compound X]/Max[HU210]−Min[HU210]×100%
where Max[compound X] and Min[compound X] are the fitted maximum and minimum respectively from the concentration effect curve for compound X, and Max[HU210] and Min[HU210] are the fitted maximum and minimum respectively from the concentration effect curve for (6aR, 10aR)-3-(1,1′-Dimethylheptyl)-6a,7,10,10a-tetrahydro-1-hydroxy-6,6-dimethyl-6H-dibenzo[b,d]pyran-9-methanol (HU210; available from Tocris). Equieffective molar ratio (EMR) values were calculated from the equation
Where EC50 [compound X] is the EC50 of compound X and EC50 [HU210] is the EC50 of HU210.
pEC50 is the negative log of the EC50.

T1 sequence (P34972 whole entry): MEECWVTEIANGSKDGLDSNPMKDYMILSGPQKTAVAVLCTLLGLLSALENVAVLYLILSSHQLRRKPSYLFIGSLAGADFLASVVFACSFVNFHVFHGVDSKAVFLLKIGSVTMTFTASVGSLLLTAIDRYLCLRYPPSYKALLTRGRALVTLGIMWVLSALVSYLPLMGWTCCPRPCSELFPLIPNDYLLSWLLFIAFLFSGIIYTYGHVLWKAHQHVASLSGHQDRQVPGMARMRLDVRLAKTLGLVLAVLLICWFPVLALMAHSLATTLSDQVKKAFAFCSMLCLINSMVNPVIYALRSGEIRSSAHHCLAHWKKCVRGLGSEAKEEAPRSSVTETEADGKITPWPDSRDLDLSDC

Which EC50 does the source give for `O=S(=O)(c1ccc(Cl)cc1)c1cnc2c(NCC3CCOCC3)cccc2c1` [Example E3, 3-[(4-Chlorophenyl)sulfonyl]-N-(tetrahydro-2H-pyran-4-ylmethyl)-8-quinolinamine] here?
The EC50 was less than 1000 nM.

same assay, conditions: agonist activity; Saccharomyces cerevisiae cells expressing the human CB2 receptor; 24 hours at 30° C.; read-out: pEC50 at the CB2 receptor (converted)

With `O=S(=O)(c1ccccc1)c1cnc2c(NCC3CCOCC3)cccc2c1` [Example E1, 3-(Phenylsulfonyl)-N-(tetrahydro-2H-pyran-4-ylmethyl)-8-quinolinamine] as the compound, how does the EC50 read?
The EC50 was less than 1000 nM.

For `O=S(=O)(c1ccccc1)c1cnc2c(NCCN3CCOCC3)cccc2c1` [Example E2, N-[2-(4-Morpholinyl)ethyl]-3-(phenylsulfonyl)-8-quinolinamine hydrochloride], which EC50 is on record?
Its EC50 is less than 10000 nM.

How did the EC50 turn out when `O=S(=O)(c1ccccc1)c1cnc2c(NCc3cccnc3)cccc2c1` [Example E4, 3-(Phenylsulfonyl)-N-(3-pyridinylmethyl)-8-quinolinamine] was run?
Its EC50 is less than 1000 nM.

`O=S(=O)(c1ccccc1)c1cnc2c(NCCc3ccncc3)cccc2c1` [Example E5, 3-(Phenylsulfonyl)-N-[2-(4-pyridinyl)ethyl]-8-quinolinamine hydrochloride] was tested. Which EC50 did it give?
Its EC50 is less than 1000 nM.

For `O=S(=O)(c1ccccc1)c1cnc2c(NCCC3CCOCC3)cccc2c1` [Example E6, 3-(Phenylsulfonyl)-N-[2-(tetrahydro-2H-pyran-4-yl)ethyl]-8-quinolinamine hydrochloride], which EC50 is on record?
The EC50 was less than 1000 nM.

How did the EC50 turn out when `Cc1cc(CCNc2cccc3cc(S(=O)(=O)c4ccccc4)cnc23)ccn1` [Example E7, N-[2-(2-methyl-4-pyridinyl)ethyl]-3-(phenylsulfonyl)-8-quinolinamine hydrochloride] was run?
Its EC50 is less than 1000 nM.
